# From ChEMBL document CHEMBL1201862, “PubChem BioAssay data set” (2004)
# Calls of active or inactive are those of the source.
# How the values were obtained:
# [1] = tested on: BJ; assay: cytotoxicity toward BJ-TERT fibroblasts, dose response, cell-based, RAS-independent, luminescence (AID 1933); type: functional; details: Homo sapiens
# [2] = tested on: BJ; assay: cells; type: functional, cell-based; details: Homo sapiens
# [3] = tested on: BJ; assay: cytotoxicity toward BJ-TERT-LT-ST fibroblasts, dose response, cell-based, RAS-independent, luminescence (AID 1935); type: functional; details: Homo sapiens;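 also: BJ fibroblasts immortalized with TERT plus LT and ST oncogenes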
# [4] = cytotoxicity toward DRD oncogenic fibroblasts, dose response, cell-based, non-viral oncogenic, luminescence (AID 1934); type: functional; details: Homo sapiens
# [5] = cytotoxicity in HEK-293T cells, dose response, cytotoxicity control for TCR NF-kB inhibitor project, luminescence, T-cell screen hits (AID 489026); type: functional, cell-based;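 also: cells exposed to compound about 14 hours before the viability readout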
# [6] = target: T1, Protein skinhead-1 (Caenorhabditis elegans, UniProt P34707); type: functional
# T1 sequence (P34707 whole entry): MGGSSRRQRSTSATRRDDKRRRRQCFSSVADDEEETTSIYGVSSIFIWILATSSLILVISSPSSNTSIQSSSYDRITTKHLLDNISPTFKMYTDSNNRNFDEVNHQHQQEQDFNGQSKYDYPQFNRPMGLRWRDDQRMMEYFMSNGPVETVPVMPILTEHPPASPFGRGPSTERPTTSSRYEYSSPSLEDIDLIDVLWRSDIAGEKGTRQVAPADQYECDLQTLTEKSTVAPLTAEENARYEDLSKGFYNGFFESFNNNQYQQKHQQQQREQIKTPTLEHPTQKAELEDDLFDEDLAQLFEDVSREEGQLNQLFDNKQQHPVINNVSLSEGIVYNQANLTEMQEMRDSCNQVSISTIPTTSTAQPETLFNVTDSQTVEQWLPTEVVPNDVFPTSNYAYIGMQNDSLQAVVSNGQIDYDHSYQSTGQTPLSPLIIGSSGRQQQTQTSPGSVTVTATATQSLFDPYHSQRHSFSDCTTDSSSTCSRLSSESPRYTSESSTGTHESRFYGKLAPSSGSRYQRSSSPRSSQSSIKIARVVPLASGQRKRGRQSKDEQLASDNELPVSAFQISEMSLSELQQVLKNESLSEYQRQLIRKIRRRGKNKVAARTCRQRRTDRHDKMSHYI
# [7] = tested on: CHO-K1; assay: Counterscreen for antagonists of the orexin 1 receptor (OX1R; HCRTR1): Homogeneous time resolved fluorescence (HTRF)-based cell-based dose response assay to identify antagonists of the parental CHO-K1 cell line. [Related pubchem assays (depositor defined):AID434989, AID435008, AID463079, AID485270, AID492963, AID492964, AID492965, AID493232, AID504699, AID504701]; type: functional; details: Cricetulus griseus;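 also: potency for inhibition of ATP-stimulated IP1 production as antagonists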
# [8] = Counterscreen for antagonists of the orexin 1 receptor (OX1R; HCRTR1): Fluorescence-based cell-based high throughput dose response assay to identify antagonists of the parental CHO cell line. [Related pubchem assays (depositor defined):AID434989, AID435008, AID463079, AID485270, AID492963, AID492964, AID492965, AID493232, AID504699, AID504701]; type: functional
# [9] = target: T2, Orexin/Hypocretin receptor type 1 (Homo sapiens, UniProt O43613); assay: Homogeneous Time Resolved Fluorescence (HTRF)-based cell-based high throughput dose response assay for antagonists of the orexin 1 receptor (OX1R; HCRTR1). [Related pubchem assays (depositor defined):AID434989, AID435008, AID463079, AID485270, AID492963, AID492964, AID492965, AID493232, AID504717, AID504718]; type: functional
# T2 sequence (O43613 whole entry): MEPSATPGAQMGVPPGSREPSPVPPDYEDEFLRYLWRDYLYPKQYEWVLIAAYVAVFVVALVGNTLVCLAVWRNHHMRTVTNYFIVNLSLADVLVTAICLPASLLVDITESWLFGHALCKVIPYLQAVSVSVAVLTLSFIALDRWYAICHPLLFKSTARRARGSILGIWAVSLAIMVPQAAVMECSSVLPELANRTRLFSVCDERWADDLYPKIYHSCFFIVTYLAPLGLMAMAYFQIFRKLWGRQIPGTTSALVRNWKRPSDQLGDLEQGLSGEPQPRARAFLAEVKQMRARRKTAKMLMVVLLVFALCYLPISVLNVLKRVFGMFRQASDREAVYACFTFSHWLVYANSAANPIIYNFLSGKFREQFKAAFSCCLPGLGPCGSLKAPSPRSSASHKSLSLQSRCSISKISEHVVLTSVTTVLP
# [10] = target: T2, Orexin/Hypocretin receptor type 1; assay: Fluorescence-based cell-based high throughput dose response assay for antagonists of the orexin 1 receptor (OX1R; HCRTR1). [Related pubchem assays (depositor defined):AID434989, AID435008, AID463079, AID485270, AID492963, AID492964, AID492965, AID493232, AID504717, AID504718]; type: functional
# [11] = tested on: Streptococcus sp. 'group A'; assay: growth inhibition of control SK(-) GAS strain, dose response, counter-screen for streptokinase expression inhibitor project, luminescence, kanamycin, BacTiterGlo, confirmation (AID 1900); type: functional, organism-based
# [12] = target: T3, Heat shock factor protein 1 (Mus musculus, UniProt P38532); assay: inhibition of MG132-induced HSE-luciferase signal, confirmation, cell-based, NIH3T3, luminescence, dose retest (AID 2382); type: functional;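 also: NIH3T3 fibroblasts with HSF1-driven luciferase reporter stressed by proteasome inhibitor MG132; luminescence from HSF1-driven luciferase expression after 8 hours of MG132 stress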
# T3 sequence (P38532 whole entry): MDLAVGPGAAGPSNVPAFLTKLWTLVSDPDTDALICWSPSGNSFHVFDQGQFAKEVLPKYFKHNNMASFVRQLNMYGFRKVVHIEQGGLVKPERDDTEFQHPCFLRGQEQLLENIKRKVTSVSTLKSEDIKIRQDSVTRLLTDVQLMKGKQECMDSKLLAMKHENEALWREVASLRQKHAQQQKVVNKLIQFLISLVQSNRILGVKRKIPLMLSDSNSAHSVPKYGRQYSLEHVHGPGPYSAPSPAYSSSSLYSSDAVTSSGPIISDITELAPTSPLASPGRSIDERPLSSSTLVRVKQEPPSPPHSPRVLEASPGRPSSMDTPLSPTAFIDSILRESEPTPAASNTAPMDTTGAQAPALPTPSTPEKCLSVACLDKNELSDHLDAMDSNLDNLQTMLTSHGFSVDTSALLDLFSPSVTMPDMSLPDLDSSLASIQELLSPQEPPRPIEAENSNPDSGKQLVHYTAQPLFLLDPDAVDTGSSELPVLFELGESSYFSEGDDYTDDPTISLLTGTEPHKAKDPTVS
# [13] = target: T4, Streptokinase A (Streptococcus pyogenes serotype M1, UniProt P10520); assay: S. pyogenes streptokinase expression inhibitors, potency, dose response, plasminogen activation absorbance, OD405 (AID 1914); type: functional, Streptococcus pyogenes M1 GAS;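 also: secreted streptokinase activity via plasminogen activation per viability signal from cell pellet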
# T4 sequence (P10520 whole entry): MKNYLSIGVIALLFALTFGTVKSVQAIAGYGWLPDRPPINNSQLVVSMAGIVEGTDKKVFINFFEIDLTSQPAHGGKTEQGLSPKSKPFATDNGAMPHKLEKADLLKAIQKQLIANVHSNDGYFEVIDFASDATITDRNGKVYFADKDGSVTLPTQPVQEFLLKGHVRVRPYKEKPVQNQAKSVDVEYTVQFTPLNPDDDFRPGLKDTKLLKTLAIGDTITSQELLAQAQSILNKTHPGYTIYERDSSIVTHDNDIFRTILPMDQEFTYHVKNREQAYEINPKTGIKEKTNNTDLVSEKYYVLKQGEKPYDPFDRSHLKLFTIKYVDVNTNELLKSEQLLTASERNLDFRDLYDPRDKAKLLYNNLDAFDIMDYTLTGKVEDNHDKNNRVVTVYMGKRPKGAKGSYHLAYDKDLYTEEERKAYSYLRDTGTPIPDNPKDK
# [14] = tested on: Streptococcus; assay: Group A Streptococcus viability loss, dose response, counter-screen for streptokinase expression inhibitor project, luminescence, BacTiterGlo (AID 1915); type: functional, organism-based;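 also: potency for reduction of bacterial viability or growth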
# [15] = tested on: Escherichia coli; assay: microbe, parasite or virus in culture
# [16] = target: Lysine-specific demethylase 4A (Homo sapiens, UniProt O75164); assay: JMJD2A histone demethylase inhibitors, dose response, selectivity assay for GASC-1 inhibitor project, biochemical, DELFIA europium, cherry-picked samples (AID 488840)
# Lysine-specific demethylase 4A, sequence (O75164 whole entry): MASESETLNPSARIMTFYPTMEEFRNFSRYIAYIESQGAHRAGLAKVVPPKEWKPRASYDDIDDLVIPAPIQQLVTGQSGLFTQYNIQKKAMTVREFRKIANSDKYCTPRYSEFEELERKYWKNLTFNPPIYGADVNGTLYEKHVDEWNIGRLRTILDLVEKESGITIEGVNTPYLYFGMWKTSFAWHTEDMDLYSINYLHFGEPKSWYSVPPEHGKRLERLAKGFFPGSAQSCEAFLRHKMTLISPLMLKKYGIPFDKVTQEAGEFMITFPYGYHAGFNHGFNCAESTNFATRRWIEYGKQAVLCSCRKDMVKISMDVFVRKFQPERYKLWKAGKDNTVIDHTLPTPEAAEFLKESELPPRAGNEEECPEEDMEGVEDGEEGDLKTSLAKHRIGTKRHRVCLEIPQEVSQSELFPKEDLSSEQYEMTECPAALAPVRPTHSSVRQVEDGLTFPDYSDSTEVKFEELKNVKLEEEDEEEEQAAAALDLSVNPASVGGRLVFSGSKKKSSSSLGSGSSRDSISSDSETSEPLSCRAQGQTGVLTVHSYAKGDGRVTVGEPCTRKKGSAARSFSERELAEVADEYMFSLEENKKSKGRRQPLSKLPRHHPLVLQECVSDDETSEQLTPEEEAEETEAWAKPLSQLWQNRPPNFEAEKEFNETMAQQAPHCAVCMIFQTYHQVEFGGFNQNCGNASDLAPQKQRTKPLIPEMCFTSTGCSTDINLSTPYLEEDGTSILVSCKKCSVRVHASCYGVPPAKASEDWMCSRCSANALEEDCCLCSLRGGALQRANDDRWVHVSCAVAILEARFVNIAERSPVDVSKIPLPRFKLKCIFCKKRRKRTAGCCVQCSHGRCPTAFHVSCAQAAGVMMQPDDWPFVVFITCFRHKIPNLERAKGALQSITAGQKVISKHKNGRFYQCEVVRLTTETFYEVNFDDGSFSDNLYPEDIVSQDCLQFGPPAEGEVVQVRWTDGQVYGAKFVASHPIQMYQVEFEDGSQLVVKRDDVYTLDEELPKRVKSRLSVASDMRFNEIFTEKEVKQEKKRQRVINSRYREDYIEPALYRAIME
# [17] = target: T5, Mannose-6-phosphate isomerase (Homo sapiens, UniProt P34949); assay: PMI enzyme inhibitors, confirmation, biochemical, fluorescence intensity (AID 1535)
# T5 sequence (P34949 whole entry): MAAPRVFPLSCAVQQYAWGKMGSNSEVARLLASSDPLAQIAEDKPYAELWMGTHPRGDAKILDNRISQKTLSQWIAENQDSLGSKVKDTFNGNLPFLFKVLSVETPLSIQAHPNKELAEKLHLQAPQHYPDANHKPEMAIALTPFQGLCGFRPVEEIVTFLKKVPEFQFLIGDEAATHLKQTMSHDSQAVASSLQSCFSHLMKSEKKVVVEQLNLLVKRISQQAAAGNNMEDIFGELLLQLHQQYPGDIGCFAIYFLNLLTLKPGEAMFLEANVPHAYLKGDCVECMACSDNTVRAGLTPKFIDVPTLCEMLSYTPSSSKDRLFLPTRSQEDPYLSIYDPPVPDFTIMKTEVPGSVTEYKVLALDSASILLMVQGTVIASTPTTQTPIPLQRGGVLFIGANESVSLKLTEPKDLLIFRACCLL
# [18] = target: Phosphomannomutase 2 (Homo sapiens, UniProt O15305); assay: Counter screen SAR assay for PMM2 inhibitors via a fluorescence intensity assay. [Related pubchem assays (depositor defined):AID1545, AID1574]
# Phosphomannomutase 2, sequence (O15305 whole entry): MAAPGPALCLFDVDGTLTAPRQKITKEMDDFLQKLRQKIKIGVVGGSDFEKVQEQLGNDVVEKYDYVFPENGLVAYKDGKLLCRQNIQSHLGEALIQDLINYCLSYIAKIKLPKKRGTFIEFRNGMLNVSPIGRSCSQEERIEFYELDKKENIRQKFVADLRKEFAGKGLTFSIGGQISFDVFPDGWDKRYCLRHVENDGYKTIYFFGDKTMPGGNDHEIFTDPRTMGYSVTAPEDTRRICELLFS
# [19] = target: T6, Tyrosine-protein phosphatase non-receptor type 7 (Homo sapiens, UniProt P35236); type: functional
# T6 sequence (P35236 whole entry): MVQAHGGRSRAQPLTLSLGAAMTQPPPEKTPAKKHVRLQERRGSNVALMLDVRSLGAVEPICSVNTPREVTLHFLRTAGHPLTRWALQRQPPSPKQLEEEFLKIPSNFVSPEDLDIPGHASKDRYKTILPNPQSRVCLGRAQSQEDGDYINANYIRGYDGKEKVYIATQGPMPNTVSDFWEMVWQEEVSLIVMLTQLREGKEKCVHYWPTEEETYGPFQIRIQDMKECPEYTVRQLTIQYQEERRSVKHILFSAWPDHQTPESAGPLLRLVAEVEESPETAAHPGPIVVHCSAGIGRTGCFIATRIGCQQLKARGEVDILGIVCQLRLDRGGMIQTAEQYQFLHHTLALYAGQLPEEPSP
# [20] = target: T7, Tyrosine-protein phosphatase non-receptor type 22 (Homo sapiens, UniProt Q9Y2R2); type: functional
# T7 sequence (Q9Y2R2 whole entry): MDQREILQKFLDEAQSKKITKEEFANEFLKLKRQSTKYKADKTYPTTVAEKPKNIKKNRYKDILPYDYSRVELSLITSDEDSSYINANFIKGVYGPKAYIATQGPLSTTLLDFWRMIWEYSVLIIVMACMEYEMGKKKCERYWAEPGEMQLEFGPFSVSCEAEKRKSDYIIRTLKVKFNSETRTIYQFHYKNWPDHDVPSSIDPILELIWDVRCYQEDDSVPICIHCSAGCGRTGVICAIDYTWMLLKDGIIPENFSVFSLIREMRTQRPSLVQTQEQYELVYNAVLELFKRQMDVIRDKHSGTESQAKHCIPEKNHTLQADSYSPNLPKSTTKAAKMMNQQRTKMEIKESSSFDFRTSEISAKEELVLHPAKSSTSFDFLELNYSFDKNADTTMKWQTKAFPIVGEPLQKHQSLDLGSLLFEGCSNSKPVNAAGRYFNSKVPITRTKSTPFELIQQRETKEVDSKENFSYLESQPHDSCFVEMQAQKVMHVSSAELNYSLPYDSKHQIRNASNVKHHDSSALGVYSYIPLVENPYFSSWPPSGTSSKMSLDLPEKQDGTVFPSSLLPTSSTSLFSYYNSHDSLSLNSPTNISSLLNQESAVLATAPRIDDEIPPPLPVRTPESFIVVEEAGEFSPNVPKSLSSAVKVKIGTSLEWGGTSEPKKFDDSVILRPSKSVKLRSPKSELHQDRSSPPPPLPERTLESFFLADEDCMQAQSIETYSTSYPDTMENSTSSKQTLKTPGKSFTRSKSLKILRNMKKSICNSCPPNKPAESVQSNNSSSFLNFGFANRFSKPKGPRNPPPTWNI
# [21] = target: T7, Tyrosine-protein phosphatase non-receptor type 22; type: functional; remark: listed apart in the source
# [22] = target: T8, Voltage-gated N-type calcium channel alpha-1B subunit/Amyloid beta A4 precursor protein-binding family A member 1 (Homo sapiens, UniProt Q00975+Q02410); type: protein assay
# T8 sequence (Q00975 whole entry): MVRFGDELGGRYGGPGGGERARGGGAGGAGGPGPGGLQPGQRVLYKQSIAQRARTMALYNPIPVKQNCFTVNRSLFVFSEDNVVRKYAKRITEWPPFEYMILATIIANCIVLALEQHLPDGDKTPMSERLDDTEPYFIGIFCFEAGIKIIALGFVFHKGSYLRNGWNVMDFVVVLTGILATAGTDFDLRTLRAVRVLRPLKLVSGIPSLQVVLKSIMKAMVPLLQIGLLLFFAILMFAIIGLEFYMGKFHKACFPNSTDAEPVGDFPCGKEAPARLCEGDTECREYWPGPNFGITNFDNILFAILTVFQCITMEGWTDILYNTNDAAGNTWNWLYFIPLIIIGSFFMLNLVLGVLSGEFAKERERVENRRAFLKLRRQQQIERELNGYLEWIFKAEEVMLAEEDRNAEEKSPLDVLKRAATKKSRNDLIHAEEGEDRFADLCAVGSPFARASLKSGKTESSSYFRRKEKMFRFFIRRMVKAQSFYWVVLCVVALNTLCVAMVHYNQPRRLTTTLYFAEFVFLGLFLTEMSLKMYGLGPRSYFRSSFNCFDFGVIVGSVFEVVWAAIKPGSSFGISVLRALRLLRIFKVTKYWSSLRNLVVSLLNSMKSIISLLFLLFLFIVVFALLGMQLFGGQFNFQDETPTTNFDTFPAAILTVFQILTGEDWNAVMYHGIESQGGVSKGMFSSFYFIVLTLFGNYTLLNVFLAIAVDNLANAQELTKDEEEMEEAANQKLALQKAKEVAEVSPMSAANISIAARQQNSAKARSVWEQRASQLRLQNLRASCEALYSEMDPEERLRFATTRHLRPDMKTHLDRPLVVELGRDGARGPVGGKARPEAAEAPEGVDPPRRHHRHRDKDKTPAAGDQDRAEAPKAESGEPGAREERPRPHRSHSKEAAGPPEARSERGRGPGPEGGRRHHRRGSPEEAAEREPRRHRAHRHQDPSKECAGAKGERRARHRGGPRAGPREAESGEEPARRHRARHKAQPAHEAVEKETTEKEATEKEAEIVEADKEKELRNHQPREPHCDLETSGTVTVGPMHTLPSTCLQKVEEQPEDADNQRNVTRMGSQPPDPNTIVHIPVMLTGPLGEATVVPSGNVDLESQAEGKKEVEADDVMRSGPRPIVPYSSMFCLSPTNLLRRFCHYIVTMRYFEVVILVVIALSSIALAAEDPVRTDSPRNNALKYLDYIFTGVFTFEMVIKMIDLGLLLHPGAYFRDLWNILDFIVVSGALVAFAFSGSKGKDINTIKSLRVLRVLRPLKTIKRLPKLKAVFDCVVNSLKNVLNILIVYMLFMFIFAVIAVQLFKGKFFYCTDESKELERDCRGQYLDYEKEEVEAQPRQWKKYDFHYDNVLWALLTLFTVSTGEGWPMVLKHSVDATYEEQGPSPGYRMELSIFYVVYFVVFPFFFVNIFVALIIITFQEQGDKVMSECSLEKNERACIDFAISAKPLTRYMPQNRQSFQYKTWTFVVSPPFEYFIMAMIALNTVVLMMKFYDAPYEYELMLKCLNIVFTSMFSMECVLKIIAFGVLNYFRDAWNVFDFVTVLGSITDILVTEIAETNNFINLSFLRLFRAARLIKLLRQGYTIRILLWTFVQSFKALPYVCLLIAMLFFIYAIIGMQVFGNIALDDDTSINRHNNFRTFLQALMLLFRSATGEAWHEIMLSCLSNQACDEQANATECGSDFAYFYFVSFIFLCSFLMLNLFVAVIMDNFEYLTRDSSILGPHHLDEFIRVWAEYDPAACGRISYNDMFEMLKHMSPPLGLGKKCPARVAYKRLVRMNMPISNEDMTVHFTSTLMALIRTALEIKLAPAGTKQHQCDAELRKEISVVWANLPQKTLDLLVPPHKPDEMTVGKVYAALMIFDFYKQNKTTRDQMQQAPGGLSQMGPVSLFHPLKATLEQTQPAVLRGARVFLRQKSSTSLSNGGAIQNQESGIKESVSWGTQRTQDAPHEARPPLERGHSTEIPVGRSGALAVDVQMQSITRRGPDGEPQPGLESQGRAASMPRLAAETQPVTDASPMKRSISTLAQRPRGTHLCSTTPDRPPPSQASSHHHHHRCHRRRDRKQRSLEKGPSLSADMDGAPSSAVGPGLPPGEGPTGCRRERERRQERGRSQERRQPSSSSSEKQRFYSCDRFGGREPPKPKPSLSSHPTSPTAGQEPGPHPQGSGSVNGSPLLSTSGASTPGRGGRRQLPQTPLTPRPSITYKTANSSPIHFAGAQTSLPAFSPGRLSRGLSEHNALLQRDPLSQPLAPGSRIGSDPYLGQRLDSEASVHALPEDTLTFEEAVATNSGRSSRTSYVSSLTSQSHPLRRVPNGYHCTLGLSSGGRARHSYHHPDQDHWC
# T8 sequence (Q02410 whole entry): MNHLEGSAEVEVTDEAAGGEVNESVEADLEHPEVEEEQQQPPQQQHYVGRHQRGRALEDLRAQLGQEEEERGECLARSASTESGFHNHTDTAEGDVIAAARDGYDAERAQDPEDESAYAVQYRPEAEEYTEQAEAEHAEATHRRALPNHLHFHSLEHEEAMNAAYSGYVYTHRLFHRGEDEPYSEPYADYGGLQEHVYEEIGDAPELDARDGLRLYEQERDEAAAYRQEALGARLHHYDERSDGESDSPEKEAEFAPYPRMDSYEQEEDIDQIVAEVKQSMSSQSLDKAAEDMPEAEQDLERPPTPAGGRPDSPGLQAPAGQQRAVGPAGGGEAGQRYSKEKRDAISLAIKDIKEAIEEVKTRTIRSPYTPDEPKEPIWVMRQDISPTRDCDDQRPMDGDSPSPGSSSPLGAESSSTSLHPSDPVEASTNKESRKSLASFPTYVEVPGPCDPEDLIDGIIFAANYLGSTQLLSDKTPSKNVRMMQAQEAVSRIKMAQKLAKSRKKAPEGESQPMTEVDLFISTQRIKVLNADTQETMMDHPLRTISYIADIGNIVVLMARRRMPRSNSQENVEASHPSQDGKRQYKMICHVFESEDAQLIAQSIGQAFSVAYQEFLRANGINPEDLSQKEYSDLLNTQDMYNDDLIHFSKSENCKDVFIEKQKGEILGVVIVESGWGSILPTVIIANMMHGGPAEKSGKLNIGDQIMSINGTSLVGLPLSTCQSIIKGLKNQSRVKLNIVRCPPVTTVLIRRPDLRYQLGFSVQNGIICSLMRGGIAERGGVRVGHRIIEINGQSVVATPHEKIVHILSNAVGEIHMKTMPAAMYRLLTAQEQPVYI
# [23] = target: T8, Voltage-gated N-type calcium channel alpha-1B subunit/Amyloid beta A4 precursor protein-binding family A member 1; type: protein assay; remark: listed apart in the source
# [24] = target: Eukaryotic translation initiation factor 4E (Mus musculus, UniProt P63073); assay: eIF4E–eIF4G protein interaction inhibitors, dose response, biochemical, TR-FRET (AID 855); type: functional;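 also: potency for disrupting eIF4E binding to eIF4GI seen as loss of FRET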
# Eukaryotic translation initiation factor 4E, sequence (P63073 whole entry): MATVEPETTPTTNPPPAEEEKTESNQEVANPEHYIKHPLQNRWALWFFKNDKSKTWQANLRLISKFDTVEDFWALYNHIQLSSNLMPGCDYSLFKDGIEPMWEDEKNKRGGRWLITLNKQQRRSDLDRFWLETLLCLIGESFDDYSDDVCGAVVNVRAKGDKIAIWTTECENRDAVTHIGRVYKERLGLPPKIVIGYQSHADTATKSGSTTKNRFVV
structure (smiles),measurement,setting,value
O=C(c1ccc(Br)cc1)c1cc([N+](=O)[O-])ccc1N1CCOCC1,EC50,[1],7.48 µM (active)
same,EC50,[2],14.8 µM (active)
same,EC50,[3],2.91 µM (inconclusive)
same,EC50,[4],2.55 µM (active)
same,IC50,[5],> 80 µM (inactive)
same,IC50,[6],44.7 µM (active)
CCOC(=O)C1=C(COC(=O)c2ccc3ccccc3c2O)NC(=O)NC1C (stereo unspecified),IC50,[7],33.6 µM (inactive)
same,IC50,[8],37.2 µM (inactive)
same,IC50,[9],1.62 µM (active)
same,IC50,[10],2.35 µM (active)
N#Cc1nc(-c2ccccc2Cl)oc1N1CCN(C(=O)c2ccco2)CC1,EC50,[11],> 150 µM (not active)
same,EC50,[12],> 195 µM (not active)
same,EC50,[13],> 150 µM (not active)
same,EC50,[14],> 150 µM (not active)
same,AC50,[15],23.9 µM (active)
Cc1ccccc1Cn1c2ccccc2c2cnnc(O)c21,AC50,[16],30.2 µM (active)
O=[N+]([O-])c1ccc(/N=c2\ssnc2Cl)cc1,IC50,[17],23 µM (active)
same,IC50,[18],> 100 µM (inactive)
C/C(=N\NC(=O)c1c(-c2ccccc2Cl)noc1C)c1cccc(NC(=O)C(C)C)c1,IC50,[19],> 79.4 µM (inactive)
same,IC50,[20],> 79.4 µM (inactive)
same,IC50,[21],> 79.4 µM (inactive)
Clc1nss/c1=N\c1ccccc1,IC50,[22],8.44 µM (active)
same,IC50,[23],8.07 µM (active)
same,IC50,[17],15.7 µM (active)
same,IC50,[18],> 100 µM (inactive)
same,IC50,[24],50 µM (inactive)
